Laboratory results reported in PMC11591307, “An RGD-Conjugated Prodrug Nanoparticle with Blood–Brain–Barrier Penetrability for Neuroprotection Against Cerebral Ischemia–Reperfusion Injury” (Antioxidants, 2024).
Residues, ends and D or L forms follow the SMILES beside them. *: point of attachment. X1 = C[C@@H]1[C@H]2[C@H](O[C@@H]3O[C@H](CO)[C@@H](O)[C@H](O)[C@H]3O)OC=C(C(=O)*)[C@H]2C[C@@H]1O

How the values were obtained:
[1] = test system: BEnd.3 cells; test: MTT cytotoxicity assay on BEnd.3 cells; assay type: cell-based, Mouse; conditions: 24 h treatment, all three concentrations, Figure S6
Description: Mouse brain microvascular endothelial cells (BEnd.3) were cultured in DMEM medium containing 10% FBS and maintained at 37 °C in a humidified atmosphere with 5% CO2. Drug solutions were prepared by diluting in PBS to the desired concentrations. Cells were seeded at a density of 4000 cells per well in 96-well plates. Once the cells had adhered, 25 μL of LA-1 or loganin solutions at varying concentrations were added to each well, followed by a 24 h incubation. BEnd.3 cells were treated with 3.12 or 6.25 μM of LA-1 or loganin for 24 h, followed by exposure to 200 μM tertiary-butylhydroperoxide (TBHP) for 4 h to induce oxidative stress. After the treatments, 25 μL of MTT solution (5 mg/mL) was added to each well, and the cells were incubated for an additional 4 h. The supernatant was then carefully removed, and the formazan crystals were dissolved in 150 μL of DMSO. Plates were shaken at room temperature for 15 min, and absorbance was measured at 490/570 nm using a microplate reader (Molecular Devices, SpectraMax ABS, San Jose, CA, USA). Cell viability = (Absorbance (drug well))/(Absorbance (control well)) × 100%

[2] = test system: BEnd.3 cells; test: Cellular uptake in BEnd.3 cells (LC-MS/MS); assay type: in vitro ADME, Mouse; conditions: 6.25 μM; for Intracellular amount over time: 3 or 6 h incubation
Description: BEnd.3 cells were seeded in 60mm dishes at 2 × 10⁶ cells/mL, with 5 mL of DMEM containing 10% FBS. After 12 h, the medium was replaced with 5 mL fresh medium, followed by 1 mL of 6.25 μM LA-1 solution. Cells were incubated for 3 or 6 h, washed twice with PBS, and harvested using 1 mL of HPLC-grade methanol. After vortexing for 2 min and centrifuging at 13,300 rpm for 5 min (6766-HS corning® High Speed Microcentrifuge, Corning, NY, USA), the supernatant was concentrated and reconstituted with 200 μL methanol. Samples were centrifuged again at 13,300 rpm for 10 min, and the supernatant was analyzed via LC–MS (ACQUITY UPLC I-Class/Xevo TQ-XS, Waters, Milford, MA, USA). Standard curves were prepared by serial dilutions of HPLC-grade methanol with concentrations ranging from 1 μg/mL to 100 pg/mL for each LA-1.

[3] = test system: BEnd.3 cells; test: Impact of integrin αvβ3 inhibitor c(RGDfK) on LA-1 uptake in BEnd.3 cells; assay type: in vitro ADME, Mouse; conditions: BEnd.3 cells pretreated 1 h with 100 μM c(RGDfK) (method: 20 nM), then 6.25 μM compound for 3 or 6 h, LC-MS/MS
Description: BEnd.3 cells were seeded at 2 × 10⁶ cells/mL in […], with 5 mL DMEM containing 10% FBS. After 12 h, the medium was replaced with 5 mL fresh medium and 1 mL 20 nM c(RGDfK). After 1 h, 1 mL of 6.25 μM compound solution was added, followed by incubation for 3 or 6 h. Cells were washed twice with PBS, collected in 1 mL of HPLC-grade methanol, and centrifuged at 13,300 rpm for 5 min (6766-HS corning® High Speed Microcentrifuge, Corning, NY, USA). The supernatant was concentrated and reconstituted in 200 μL methanol before a final 10 min centrifugation. The supernatant was then used for LC–MS/MS (ACQUITY UPLC I-Class/Xevo TQ-XS, Waters, Milford, MA, USA) analysis.

[4] = In vivo pharmacokinetic study, plasma; design: species or system rat; conditions: SD rats, intravenous tail injection 30 mg/kg, LC-MS/MS, n = 3
Description: We purchased male Sprague-Dawley (SD) rats weighing between 200 and 220 g, which had been catheterized in the jugular vein, from Beijing Sinocon Pharmaceutical Technology Co., Ltd. (Beijing, China). The rats were divided into two groups: LA-1 group and loganin group, with three rats in each group. First, 200 μL of whole blood was collected from each rat at time point zero as a blank control. Subsequently, LA-1 and loganin were administered tail via injection at a dose of 30 mg/kg, dissolved in 0.9% saline. For the pharmacokinetics of the intravenously administered drugs, blood samples of 200 μL were collected from the rats at 5, 15, 30, 45 min, 1, 1.5, 2, 3, 6, 8, 12, and 24 h, using heparinized anticoagulation tubes for processing. After each blood collection, 200 μL of perfusion solution was injected into the rats through the catheter to maintain their physiological status. To obtain the rat plasma, the samples were centrifuged immediately at 3500 rpm for 10 min (5810R) after collection. Methanol (300 μL) was added to plasma samples (100 μL) to precipitate plasma proteins, then rotary evaporation at 35 °C was used to remove methanol from the samples. The LA-1 and loganin were quantified by LC–MS/MS analysis (ACQUITY UPLC I-Class/Xevo TQ-XS, Waters, Milford, MA, USA).

[5] = Intra-brain distribution after ischemic injury; assay type: in vivo, rat; conditions: MCAO rats, LA-1 10 mg/kg vs loganin 30 mg/kg i.v., 3 h after administration, right hemisphere, LC-MS/MS, n = 3
Description: To investigate the distribution of LA-1 and loganin within the brain, the experimental protocol was as follows: First, the rats were subjected to 2 h of induced ischemia, after which the filament was removed to allow for reperfusion. Subsequently, LA-1 (10 mg/kg) and loganin (30 mg/kg) were administered via tail vein injection. […] At the 3 h time point, the rats were anesthetized, perfused with saline via the heart, and then euthanized to collect brain tissue. The brain tissue was divided into left and right hemispheres, with the right hemisphere representing the ischemic region. The right hemisphere was placed into a 5 mL centrifuge tube, and 600 μL of pre-chilled PBS was added, followed by homogenization on ice. A 200 μL aliquot of the homogenate was combined with 200 μL of chromatography-grade methanol and 200 μL of chromatography-grade acetonitrile, and subjected to ultrasonic treatment for 5 min. The mixture was then centrifuged at 13,000 rpm for 10 min at 4 °C, and the supernatant was collected for concentration. After concentration, 200 μL of chromatography-grade methanol was added for reconstitution, followed by another round of high-speed centrifugation to obtain the supernatant. Finally, the target molecules were quantified using LC–MS/MS (ACQUITY UPLC I-Class/Xevo TQ-XS, Waters, Milford, MA, USA). […]

[6] = H&E staining of heart, liver, spleen and kidney (biosafety in vivo); design: species or system rat; conditions: Figure S7
Description: (§1) Fresh brain, heart, liver, spleen, and kidney tissues from rats were fixed in 4% paraformaldehyde, dehydrated, embedded in paraffin, and sectioned into 4 µm slices. For HE staining, the sections were deparaffinized using a dewaxing agent (G1128, Solarbio, Beijing, China), rehydrated in ethanol of various concentrations, stained with hematoxylin and eosin, dehydrated, and sealed with neutral resin. For Nissl staining, thin sections were immersed in the staining solution for 15 min (G1086, Solarbio, Beijing, China), washed with water, rapidly dehydrated with absolute ethanol, and cleared in xylene for 5 min. The sections were then mounted with neutral resin. Finally, the sections were observed using a light microscope (Nikon Eclipse E100, Tokyo, Japan) and analyzed with a 3D viewer.

[7] = Particle size and zeta potential; assay type: physicochemical; conditions: laser nanoparticle sizer Nano-ZS90
Description: The size distribution and zeta potential of LA-1 and loganin were determined using a laser nanoparticle sizer (Nano-ZS90, Malvern Instruments Ltd., Malvern, Worcestershire, UK).

[8] = Morphology by TEM, SEM and AFM; assay type: physicochemical; conditions: SEM, AFM, samples in deionized water, dried
Description: Each sample was further diluted to 0.1 mg/mL, and 10 μL was placed dropwise onto copper grids and dried at room temperature for 7 days. Transmission electron microscopy (TEM, […], Tokyo, Japan) and scanning electron microscopy (SEM, Hitachi, S-4800, Tokyo, Japan) were used to observe the morphology. In total, 1 mg of LA-1 or loganin was ultrasonically dispersed in 1 mL of deionized water. Then, 100 μL of the samples were dropped onto 10 × 10 mm mica sheets and air-dried overnight. The surface morphology was characterized by atomic force microscopy (AFM, Bruker, Multimode 8, Bruker, Billerica, Germany).

[9] = test system: MCAO rats; test: MCAO cerebral ischemia-reperfusion injury model; assay type: in vivo, rat; conditions: for Neurological score (Zelonga): 22 h post-treatment, loganin 30 mg/kg, LA-1 10 mg/kg i.v.; for Neurological score (Zelonga) / Infarct area versus model (TTC staining): edaravone 3 mg/kg
Description: A selection of 6–8-week-old Sprague–Dawley (SD) male rats weighing 250 to 280 g were divided into five groups, with 12 rats in each group: sham group, model group (MCAO), edaravone group (3 mg/kg), LA-1 group (10 mg/kg), and loganin group (30 mg/kg). In all groups of rats, anesthesia was induced with 3% isoflurane and then maintained at 2.5% isoflurane during surgery. Briefly, a 1–2 cm incision was made along the midline of the rat’s neck to expose the right carotid artery. Then, a nylon suture (A5-243650, Beijing Cinontech Co. Ltd., Beijing, China) coated with silica gel was inserted through the external carotid artery (ECA) into the middle […], which was then occluded. In this instance, the monofilament was not inserted in the sham group. After 2 h, the nylon suture was removed to allow reperfusion, and different drugs were immediately administered to the rats via the tail vein. Additionally, the sham and model groups received an equivalent dose of distilled water, with a dosage of 2 mL/kg. Cerebral blood flow was measured using a laser speckle flow imaging system (RWD Life science Co., Ltd., RFLSI ZW, Shenzhen, China) at three distinct time points: before ischemia, 2 h after ischemia, and 22 h after reperfusion. Neurological function scores for the treatment groups were assessed blindly at 22 h post-MCAO using the ZeLonga scoring system, after which the anesthetized rats were quickly euthanized. The brain tissue was harvested and then sectioned into seven slices, with six slices subjected to 2,3,5-triphenyltetrazolium chloride (TTC) staining to calculate the brain infarct area, while the remaining slice was preserved for future use.
as §1
Paraffin sections were prepared as described for HE staining. The sections were dewaxed and antigen retrieval was performed using citric acid (pH 6.0). The sections were blocked in 0.1% Triton in PBS for 15 min. TUNEL reaction solution (TDT:dUTP:buffer = 1:5:50) was added, followed by blocking with BSA. After washing, sections were incubated with the secondary antibody (Cy3-goat anti-rabbit, GB21303, 1:300) at room temperature for 50 min. Finally, after PBS washing, the sections were stained with DAPI, mounted with an anti-fading mounting medium, and images were acquired using a fluorescence microscope (Nikon Eclipse C1, Tokyo, Japan).

[10] = 22 h reperfusion, loganin 30 mg/kg i.v.
[11] = LA-1 10 mg/kg, loganin 30 mg/kg i.v.

Structure (SMILES)	Cell viability (cytotoxicity) [1]	Intracellular amount over time [2]	Cellular uptake of LA-1 relative to loganin ([2]; 6 h incubation, n = 3)	Decrease of cellular uptake in the presence of c(RGDfK) [3]	Time at which plasma concentration was below the limit of detection / undetectable [4]	half-life ([4]; male, Sprague-Dawley, rat)	Brain accumulation in ischemic brain tissue [5]	Pathophysiological changes in heart, liver, spleen and kidney tissue sections [6]	polydispersity index (PDI) [7]	Particle Size ([7]; mean ± SD)	Zeta Potential ([7]; mean ± SD)	Nanostructure morphology [8]	Plasma half-life [4]	Neurological score (Zelonga) [9]	Infarct area (TTC staining) ([9]; 22 h reperfusion, LA-1 10 mg/kg, loganin 30 mg/kg i.v.)	Infarct area versus model (TTC staining) [9, 10]	H&E staining of cortical neurons [9, 11]	Nissl staining of neurons [9, 11]
CC(C)[C@H](NC(=O)[C@H](CC(=O)O)NC(=O)CNC(=O)[C@H](CCCNC(=N)N)NC(=O)C1=CO[C@@H](O[C@@H]2O[C@H](CO)[C@@H](O)[C@H](O)[C@H]2O)[C@@H]2[C@@H](C)[C@@H](O)C[C@H]12)C(=O)O [LA-1, LA-Arg-Gly-Asp-Val] (X1-RGDV-OH)	no significant change	continued to accumulate	approximately 2148 fold	approximately 3 fold	90 min	~10 min	dramatically higher than that of loganin	No significant pathophysiological changes	–	–	–	–	–	–	–	–	–	–
COC(=O)C1=CO[C@@H](O[C@@H]2O[C@H](CO)[C@@H](O)[C@H](O)[C@H]2O)[C@@H]2[C@@H](C)[C@@H](O)C[C@H]12 [Loganin]	no significant change	reached a plateau after 3 h	–	–	180 min	–	–	–	0.194	231.5 ± 81.23 nm	−4.16 ± 4.40 mV	irregular and unevenly dispersed	~45 min	reduction trend in neurological score but without statistically significant difference	16.843%	significant infarct area reduction	improved the morphology, though to a lesser extent than LA-1	the recovery was less pronounced compared to LA-1
CC1=NN(c2ccccc2)C(=O)C1 [edaravone, Edaravone]	–	–	–	–	–	–	–	–	–	–	–	–	–	reduction trend in neurological score but without statistically significant difference	–	significant infarct area reduction	–	–
